Measured values published in PMC2631241 (Journal of combinatorial chemistry, 2008).

Target: human serum albumin (HSA) (Homo sapiens, UniProt P02768)
Experiment: 1D 1H NMR line-broadening titration of ligand with HSA

Chain of human serum albumin (HSA) (P02768 25-609): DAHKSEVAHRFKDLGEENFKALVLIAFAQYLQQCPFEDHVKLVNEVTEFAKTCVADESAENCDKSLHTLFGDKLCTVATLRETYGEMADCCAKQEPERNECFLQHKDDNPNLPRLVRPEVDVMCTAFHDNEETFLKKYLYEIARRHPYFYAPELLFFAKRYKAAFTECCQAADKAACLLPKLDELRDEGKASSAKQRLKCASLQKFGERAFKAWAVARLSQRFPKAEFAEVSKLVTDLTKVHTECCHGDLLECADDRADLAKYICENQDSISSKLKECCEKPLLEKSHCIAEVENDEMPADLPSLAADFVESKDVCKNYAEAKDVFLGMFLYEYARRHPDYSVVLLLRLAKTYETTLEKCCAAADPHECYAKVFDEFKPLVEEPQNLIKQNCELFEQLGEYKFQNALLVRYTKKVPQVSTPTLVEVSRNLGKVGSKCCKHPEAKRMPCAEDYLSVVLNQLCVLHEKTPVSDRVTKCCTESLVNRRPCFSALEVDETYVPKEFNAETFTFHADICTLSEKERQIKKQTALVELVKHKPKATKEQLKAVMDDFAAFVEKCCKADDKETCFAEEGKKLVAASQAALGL

Structure (SMILES) | Kd [µM]
O=S1(=O)OC(c2ccc(O)cc2)(c2ccc(O)cc2)c2ccccc21 [Phenol Red, phenol red] | 36.8 ± 6.5
CCOC(=O)C(C)(C)Oc1ccc(Cl)cc1 [Clofibrate, clofibrate] | 1.7 ± 3.4
O=C1NC(=O)C(c2ccccc2)(c2ccccc2)N1 [Phenytoin, phenytoin] | 132 ± 12.5
